Measured values taken from patent US20240366649A1, “4-ETHYNYL-3-HYDROXY-TETRAHYDROFURANYL-ADENINE PHOSPHORAMIDATES AND RELATED COMPOUNDS AND THEIR USE IN TREATING MEDICAL CONDITIONS” (ROME THERAPEUTICS, INC., priority 2021, published 2024).
pEC50, pIC50: −log10 of the molar value. Several values for one entry are separate records, joined by “and”; a condition that tells them apart may be missing. Equal entries are not always repeated.

Experiments:
Format in all cases: cell-based
[1] = test system: THP1-Dual™ KO-TREX1 cells; test: CellTiter-Glo cell viability in THP1-Dual KO-TREX1 cells; conditions: Homo sapiens, 120 h, CellTiter-Glo inhibition of cell viability, after five days of treatment, read-out: CTG IC50
Procedure: (§1) THP1-Dual™ KO-TREX1 cells were purchased from Invivogen (cat #thpd-kotrex). The THP1-Dual™ KO-TREX1 cells were cultured in RPMI 1640, 10% heat-inactivated fetal bovine serum, 25 mM HEPES, 10 μg/mL Blasticidin, and […] Zeocin. THP1-Dual™ KO-TREX cells were treated with a dose titration of test compound in the presence of 1 μM 5-aza-2′-deoxycytidine (Sigma, cat #189825). Type 1 Interferon and cell viability were assessed after five days of treatment.
(§2) THP1-Dual™ KO-TREX1 cells were treated with 1 μM 5-aza-2′-deoxycytidine. THP1-Dual™ KO-TREX1 cells (50 μL) were added to each well of the 384-well plate containing test compound titration at 10,000 cells/well. Cells were incubated at 37° C., 5% CO2 in a humidified incubator for five days. On day five, 20 μL of cell supernatant was transferred to a 384-well, white-walled plate, followed by addition to each well of 50 μL of QUANTI-LUC solution containing stabilizer. Luminescence was detected on a plate reader according to manufacturer's instructions.
(§3) For certain compounds, the assay was run in a 96-well format, with the following modifications: • 190 μL, instead of 50 μL, of cells were added to each well, to provide 50,000 cells/well, instead of 10,000 cells/well, • Cells were incubated for 6 days, instead of 5 days, • 25 μL, instead of 20 μL, of cell supernatant was added to the white-walled plate for QUANT-LUC treatment; and • 25 μL, instead of 30 μL, of CellTiter-Glo was added to assess cell viability.
The remaining cells were assessed for cell viability by adding 30 μl of CellTiter-Glo (Promega, G9683) solution to each well, and placed on a shaker for 10 minutes at room temperature. Luminescence was detected on a plate reader, according to manufacturer's instructions. Percent inhibition of cell viability using CellTiter-Glo was calculated using the following analysis: (Average DMSO-Sample)/(Average DMSO-Average 20 μM control reagent)*100. The control reagent was Z-Leu-Leu-leucinal (see, for example, https://pubchem.ncbi.nlm.nib.gov/compound/462382).

[2] = biological target: T1, LINE1 reverse transcriptase (Homo sapiens, UniProt O00370); test: Stable artificial-intron Cis LINE1 reporter assay; set-up: expressed in transfected cells; conditions: HeLa L1 artificial-intron reporter cells, doxycycline-induced, 72 h, Firefly luciferase activity
Excerpt: A stable HeLa Tet-On 3G (Takara, cat no 631183) cell line expressing a bi-directional inducible LINE1 construct was generated as described in Xie, Y. et al. “Cell division promotes efficient retrotransposition in a stable L1 reporter cell line,” Mobile DNA (2013) 4:10. Single cell clones were screened for high Luciferase expression and the highest expression Firefly expressing clone was chosen for compound testing.
Test compounds were serially diluted in DMSO and spotted in 96-well plates. Subsequently the HeLa L1 artificial-intron reporter cells were plated into the compound-containing wells (8,000 cells/well), and the cells were induced for reporter expression with doxycycline (Sigma cat no D9891) at a final concentration of 500 ng/mL. Luminescence was measured 72 h after plating using the Dual-Glo Luciferase Assay System (Promega cat no E2940) following the manufacturer's instructions. The Firefly Luciferase activity (normalized against its activity in a control well without test compound) was used to report LINE1 activity.

[3] = test system: IFN production in THP1 TREX1 KO cells; test: Cellular assay for altering IFN production in THP1 TREX1 KO cells; conditions: for pEC50 / pIC50: Homo sapiens; for Concentration at Max Induct.: lowest concentration at which the maximum-fold IFN induction was observed; for Maximum IFN Induction: maximum-fold IFN induction, 1 μM 5-aza-2′-deoxycytidine; for pIC50: inhibitors of IFN; for change in IFN levels (figure): FIG. 6-8, % induction versus compound concentration
Procedure: as §1
Stock solution of test compound was prepared in DMSO followed by a three-fold dilution in DMSO. Additional 50× dilution was prepared in cell culture media for each dilution. 10 μL of diluted test compound was then added to a 384-well plate.
as §2, §3
Percent inhibition of interferon was calculated using the following analysis: (Average DMSO-Sample)/(Average DMSO-Average 30 μM control reagent)*100. The control reagent for inhibition of interferon was a specific nucleoside reverse-transcriptase inhibitor with molecular weight <600 a.m.u. Percent induction of interferon was calculated using the following analysis: (Sample-Average DMSO)/(10 μM control reagent-Average DMSO)*100. The control reagent for induction of interferon was compound 8 (4′-ethynyl-2-chloro-2′-deoxyadenosine).

[4] = biological target: T1, LINE1 reverse transcriptase; test: Transient artificial-intron Cis LINE1 reporter assay; set-up: expressed in transfected cells; conditions: HEK 293 cells; ratio FLuc/RLuc reports LINE1 activity; tested up to 100 μM; read-out: IC50 for inhibiting FLuc luminescence
Procedure: Intron-disrupted Firefly luciferase (FLuc) expression cassettes were generated as described by Xie, Y. et al. “Characterization of L1 retrotransposition with high-throughput dual-luciferase assays,” Nucleic Acid Res. (2011) Vol. 39, No. 3, e16. In addition, the plasmid contained an intact Renilla luciferase (RLuc) expression cassette on the vector backbone, in order to normalize transfection efficiency and measure potential cell toxicity.
HEK 293 cells were seeded in 96-well plates at 1,000 cells/well in 55 μL and grown for 24 hours. Cells were transfected with FuGeneHD (Promega) following the manufacturer's protocol. Each well received 0.133 ng plasmid, 0.4 μL FuGeneHD reagent, and 4.5 μL GlutaMAX-I-supplemented Opti-MEM I reduced-serum medium (Invitrogen). Cells were simultaneously treated with test compound serially diluted starting at 100 μM in a 3-fold dilution dose response.
Luminescence was measured using the Dual-Glo Luciferase Assay System (Promega) following the manufacturer's instructions. The ratio between FLuc and RLuc gene expression was used to report LINE1 activity.

[5] = THP-1, 120 h, inducers of IFN, in the presence of 1 μM 5-aza-2′-deoxycytidine, five days
[6] = THP-1, another experiment testing the same compound (not the one of Table 7)
[7] = THP-1, 120 h, in the presence of 1 μM 5-aza-2′-deoxycytidine, five days

T1 sequence (O00370 whole entry, looked up): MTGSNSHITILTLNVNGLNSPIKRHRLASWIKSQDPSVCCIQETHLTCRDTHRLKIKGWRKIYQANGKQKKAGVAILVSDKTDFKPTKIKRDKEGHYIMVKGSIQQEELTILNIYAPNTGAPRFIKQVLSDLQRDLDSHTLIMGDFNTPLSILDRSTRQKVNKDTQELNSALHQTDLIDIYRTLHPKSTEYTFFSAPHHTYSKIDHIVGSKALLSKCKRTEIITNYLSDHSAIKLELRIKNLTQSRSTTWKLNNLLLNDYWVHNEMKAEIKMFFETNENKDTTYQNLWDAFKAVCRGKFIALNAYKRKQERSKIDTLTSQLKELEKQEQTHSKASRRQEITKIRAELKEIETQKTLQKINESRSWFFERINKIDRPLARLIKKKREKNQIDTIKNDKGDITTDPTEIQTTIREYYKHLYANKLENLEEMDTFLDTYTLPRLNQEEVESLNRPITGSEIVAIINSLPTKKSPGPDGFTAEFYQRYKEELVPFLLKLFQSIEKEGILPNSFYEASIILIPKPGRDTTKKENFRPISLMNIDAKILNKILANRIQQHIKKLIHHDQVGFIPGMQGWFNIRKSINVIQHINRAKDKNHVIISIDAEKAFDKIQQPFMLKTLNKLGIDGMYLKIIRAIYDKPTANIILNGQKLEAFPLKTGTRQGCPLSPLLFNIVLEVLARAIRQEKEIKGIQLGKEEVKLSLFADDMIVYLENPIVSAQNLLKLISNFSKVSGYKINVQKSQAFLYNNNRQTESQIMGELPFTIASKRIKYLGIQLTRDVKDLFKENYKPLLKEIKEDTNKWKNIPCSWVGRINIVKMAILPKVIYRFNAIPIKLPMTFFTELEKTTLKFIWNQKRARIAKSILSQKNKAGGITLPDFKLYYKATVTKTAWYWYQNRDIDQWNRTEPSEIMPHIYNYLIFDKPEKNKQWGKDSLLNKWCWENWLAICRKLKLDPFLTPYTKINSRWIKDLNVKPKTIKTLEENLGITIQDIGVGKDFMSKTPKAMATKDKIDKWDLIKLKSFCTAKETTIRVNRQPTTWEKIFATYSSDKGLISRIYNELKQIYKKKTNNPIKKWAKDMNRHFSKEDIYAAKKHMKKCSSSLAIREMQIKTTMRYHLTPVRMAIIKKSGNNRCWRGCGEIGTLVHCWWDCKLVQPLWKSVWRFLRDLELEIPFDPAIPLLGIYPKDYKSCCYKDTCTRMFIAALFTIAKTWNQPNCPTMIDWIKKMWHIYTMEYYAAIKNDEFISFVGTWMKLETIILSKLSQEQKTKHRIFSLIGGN

Row | pIC50 [1] | pIC50 [2] | pEC50 [3, 5] | pIC50 [4] | SMILES | other results
1 | < 5.00 | ≥ 7.30 | 5.00 to 6.00 |  | C#C[C@]1(COP(=O)(O)N[C@H](C)C(=O)OC(C)C)O[C@@H](n2cnc3c(N)nc(Cl)nc32)C[C@@H]1O [Compound I-48] | Concentration at Max Induct. [3]: 10 µM; Maximum IFN Induction ([3]; five days): > (values from 1.00 to less than 1.50)
2 | < 5.00 | ≥ 7.30 | 5.00 to 6.00 |  | C#C[C@]1(COP(=O)(O)N[C@@H](C)C(=O)OC(C)C)O[C@@H](n2cnc3c(N)nc(Cl)nc32)C[C@@H]1O [Compound I-47, [(2R,3S,5R)-5-(6-amino-2-chloropurin-9-yl)-2-ethynyl-3-hydroxyoxolan-2-yl]methoxy([(2S)-1-isopropoxy-1-oxopropan-2-yl]amino)phosphinic acid] | pEC50 ([3]; THP-1, experiment depicted in FIG. 11 / FIG. 12): > 6.00; pEC50 [3, 6]: < 5.00; Concentration at Max Induct. [3]: 10 µM; Maximum IFN Induction ([3]; five days): >>> (values greater than 2.00)
3 | < 5.00 | 6.30 to 7.30 |  |  | C#C[C@@]12COP(=O)(N[C@H](C)C(=O)OC(C)C)O[C@H]1C[C@H](n1cnc3c(N)nc(F)nc31)O2 (some centres unmarked) [IV-12] | pIC50 [3, 7]: 5.30 to 6.00
4 |  | ≥ 7.30 | < 5.00 |  | C#C[C@]1(COP(=O)(O)N[C@@H](C)C(=O)OC(C)C)O[C@@H](n2cnc3c(N)nc(F)nc32)C[C@@H]1O [Compound I-49] | 
5 | 5.60 | 6.30 to 7.30 |  |  | C#C[C@@]12COP(=O)(N[C@@H](C)C(=O)OC(C)C)O[C@H]1C[C@H](n1cnc3c(N)nc(F)nc31)O2 (some centres unmarked) [IV-13] | pIC50 [3, 7]: > 6.00
6 |  | ≥ 7.30 |  | 8.08 | C#C[C@]1(CO)O[C@@H](n2cnc3c(N)nc(Cl)nc32)C[C@@H]1O [Compound 8, 4′-ethynyl-2-chloro-2′-deoxyadenosine, reference compound] | change in IFN levels (figure) [3]: induction of IFN
7 |  |  |  | < 4.00 | Nc1ccn([C@H]2CO[C@@H](CO)S2)c(=O)n1 [apricitabine] | 
8 |  | < 6.30 |  | < 4.00 | Nc1ccn([C@@H]2CS[C@H](CO)O2)c(=O)n1 [lamivudine (3TC), Lamivudine, reference compound] | 
9 | 5.51 | 6.30 to 7.30 |  |  | C#C[C@@]12COP(=O)(N[C@@H](C)C(=O)OC(C)C)O[C@H]1C[C@H](n1cnc3c(N)nc(Cl)nc31)O2 (stereo partly drawn) [IV-6, isopropyl (2S)-2-{[(4aR,6R,7aS)-6-(6-amino-2-chloropurin-9-yl)-4a-ethynyl-2-oxo-tetrahydro-2lambda5-furo[3,2-d][1,3,2]dioxaphosphinin-2-yl]amino}propanoate] | pIC50 [3, 7]: > 6.00
10 |  | < 6.30 |  |  | C#C[C@]1(COP(=O)(N[C@@H](C)C(=O)OC(C)C)OCOC(=O)OC(C)C)O[C@@H](n2cnc3c(N)nc(Cl)nc32)C[C@@H]1O (stereo partly drawn) [I-14 and I-15, isopropyl (2S)-2-({[(2R,3S,5R)-5-(6-amino-2-chloropurin-9-yl)-2-ethynyl-3-hydroxyoxolan-2-yl]methoxy([(isopropoxycarbonyl)oxy]methoxy)phosphoryl}amino)propanoate] | 
11 |  | 6.30 to 7.30 | < 5.00 |  | C#C[C@@]12COP(=O)(N[C@H](C)C(=O)OC(C)C)O[C@H]1C[C@H](n1cnc3c(N)nc(Cl)nc31)O2 (some centres unmarked) [IV-5] | 
12 |  | 6.30 to 7.30 |  |  | C#C[C@@]12COP(=O)(OC(C)C)O[C@H]1C[C@H](n1cnc3c(N)nc(Cl)nc31)O2 (some centres unmarked) [IV-1] | 
13 |  | ≥ 7.30 |  | 7.39 | C#C[C@]1(CO)O[C@@H](n2cnc3c(N)ncnc32)C[C@@H]1O [4′-ethynyl-2′-deoxyadenosine, reference compound] | change in IFN levels (figure) [3]: induction of IFN
14 |  | 6.30 to 7.30 |  |  | C#C[C@]1(COP(=O)(O)N[C@H](C)C(=O)OC(C)C)O[C@@H](n2cnc3c(N)nc(F)nc32)C[C@@H]1O [Compound I-50] | 
15 |  | ≥ 7.30 |  |  | C#C[C@@]12COP(=O)(OC(C)C)O[C@H]1C[C@H](n1cnc3c(N)nc(F)nc31)O2 (some centres unmarked) [IV-10] | 
16 |  | < 6.30 |  | < 4.00 | Nc1nc(=O)c2ncn([C@@H]3C[C@H](CO)[C@H]3CO)c2[nH]1 [lobucavir, reference compound] | 
17 |  | < 6.30 |  | < 4.00 | Cc1cn([C@H]2C[C@H](N=[N+]=[N-])[C@@H](CO)O2)c(=O)[nH]c1=O [AZT (zidovudine), Zidovudine, reference compound] | 

Row | SMILES | pIC50 [1] | pIC50 [2] | pEC50 [3, 5] | pIC50 [4] | other results
18 | C#C[C@]1(CO[P@@](=O)(N[C@@H](C)C(=O)OC(C)C)Oc2ccccc2)O[C@@H](n2cnc3c(N)nc(Cl)nc32)C[C@@H]1O [Compound I-1, Isopropyl ((S)-(((2R,3S,5R)-5-(6-amino-2-chloro-9H-purin-9-yl)-2-ethynyl-3-hydroxytetrahydrofuran-2-yl)methoxy)(phenoxy)phosphoryl)-L-alaninate] | < 5.00 | 6.30 to 7.30 and ≥ 7.30 | 5.00 to 6.00 |  | Concentration at Max Induct. [3]: 10 µM; Maximum IFN Induction ([3]; five days): >> (values from 1.50 to 2.00)
19 | C#C[C@]1(CO[P@@](=O)(N[C@@H](C)C(=O)OC(C)C)Oc2ccccc2)O[C@@H](n2cnc3c(N)nc(F)nc32)C[C@@H]1O [Compound I-18] |  | 6.30 to 7.30 | < 5.00 |  | 
20 | C#C[C@]1(CO[P@](=O)(N[C@@H](C)C(=O)OC(C)C)Oc2ccccc2)O[C@@H](n2cnc3c(N)nc(F)nc32)C[C@@H]1O [Compound I-54] | < 5.00 | ≥ 7.30 | > 6.00 |  | pEC50 [3, 6]: < 5.00
